Earlier results as cited in patent US20250281528A1, “GRAPHENE OXIDE-CATIONIC SILVER NANOCOMPOSITES AND THEIR USE AS BROAD-SPECTRUM ANTIMICROBIAL AGENTS” (priority 2020, published 2025).

Experiments:
Settings in all cases: literature values, refs in Table 6 footnotes
[1] = tested on: Candida albicans
[2] = tested on: Salmonella typhi
[3] = tested on: Vibrio cholerae
[4] = tested on: Streptococcus pyogenes

In the case of `O=[N+]([O-])[O-].[Ag+]` [AgNO3, Silver Nitrate], the MIC [1] is given as 4.9 ^f μg/mL, the MIC [2] is given as 110 ^c μg/mL and the MIC [3] is given as 70 ^c μg/mL. The MIC [4] was 80 ^c μg/mL.
